{
  "source": "paper PMC11562385",
  "about": "(RSC Chemical Biology, 2024)",
  "key": {"[1]": {"experiment": "Variable-temperature CD melting curves (CD-melts at 228±2 nm and 202±2 nm), individual and global two-state fits", "assay_type": "physicochemical", "in_short": "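Far-UV CD melts (0 to 95 °C) at 15-120 µM peptide in 15 mM phosphate buffer, concentration set by Trp/Tyr absorbance at 280 nm; CD-exciton intensity taken as %-folding probe. Melting curves fitted individually and globally to a two-state model.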"}, "PD1:PDL1 interaction [2]": {"molecular_target": "T1, PD1:PDL1 interaction (Homo sapiens, UniProt Q15116)", "T1 construct": "purchased BPS Bioscience 72005", "T1 sequence (Q15116 25-167 limits assumed)": "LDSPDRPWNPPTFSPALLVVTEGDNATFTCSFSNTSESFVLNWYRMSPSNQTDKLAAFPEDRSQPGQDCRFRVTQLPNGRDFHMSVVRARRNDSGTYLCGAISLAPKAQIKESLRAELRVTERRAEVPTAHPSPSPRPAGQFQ", "experiment": "Time-course competitive inhibition of PD1:PDL1 under saturating PDL1 (1:12)", "assay_type": "binding", "details": "inhibitor preincubated, 3 μM; PD1:PDL1 1:12; two hours; n = 4", "quoted_text": "Time-course experiments were repeated by preincubating the non-covalent inhibitor 2c in one case, or the covalent ADAPTins2ca and 2cb at the same concentration."}, "e-PBMCs": {"system": "e-PBMCs", "experiment": "Ex vivo cytokine secretion assay, exhausted PBMCs from a melanoma patient", "assay_type": "cell-based, human", "details": "e-PBMC, 6 h, LEGENDplex", "protocol": "Then, an ex vivo immune cell culture system using h-PBMCs and exhausted PBMCs from a melanoma patient (e-PBMCs) was used to determine the efficacy of selected ADAPTin peptides on T-effector cells (Fig. 6).[91,92] T-cell exhaustion typically leads to a reduction in cytokine release, cytotoxic activity, as well as slower T-cell proliferation. […] Cytokines concentrations measured at 72 h post-treatment were in most cases over the detection limit range further indicating the effectiveness of our compounds over time.\nNon-covalent ADAPTin2c/2p were used as negative control. (A) Levels of inflammatory cytokines measured by flow-cytometry (FACS) after 6 h incubation with electrophilic ADAPTins. Error bars indicate the mean ± SD, (n = 3). (B) Rescue of exhausted PBMCs from a melanoma patient. Levels of inflammatory cytokines and granule-associated proteins released (6 h) measured by FACS (healthy and untreated exhausted PBMCs: h-/e-PBMCs used as positive and negative controls respectively). Error bars indicate the avg ± SD, (n = 2).\nEx Vivo Cytokine Secretion Assay.\nNormal PBMCs (from healthy donor) and exhausted PBMCs isolated from the blood sample of a melanoma patient were activated for 48 h before using anti-CD2/28 monoclonal antibodies with IL-2 (2 ng/mL) as mentioned above. After 48 h, PBMCs were washed and incubated with a series of ADAPTins for 6 h. After treatment, media supernatant was collected for cytokine release measurements using the LEGENDplex™ human CD8/NK (13-plex) panel (BioLegend, cat no. 740267). Briefly, samples were mixed with assay buffer and human (13-plex) mixed-beads and plated on the 96-well filter plate. Samples were incubated for 2 h at room temperature, washed, and resuspended beads with detection antibodies according to manufacturer's protocol. Samples were transferred to a 96-well plate to read on a flow cytometer. The flow cytometer and data acquisition software setting were used according to the manufacturer's instructions. Flow analysis was obtained using a CytoFLEX-S flow cytometer equipped with 3 lasers (488 nm blue, 405 nm violet, and 638 nm from Beckman).\nTable S9. Raw data of cytokine secretion assay (n=2).\nCytokine assay IL-2 TNF-α IFN-γ Perforin […]"}, "N-deglycosylated PD1": {"system": "N-deglycosylated PD1", "experiment": "SDS-PAGE analysis of covalent conjugation to N-deglycosylated PD1", "assay_type": "biochemical", "details": "N-deglycosylated PD1, 12 h, 37 °C, pH 6.5, peptide/protein 4:1 to 16:1"}, "[3]": {"molecular_target": "T2, cell surface PD1 on CD3+/CD8+ cells of h-PBMCs (Homo sapiens, UniProt Q15116)", "T2 construct": "endogenous in cells; host or cells: healthy human PBMCs (CD45+, CD3+/CD8+ gated)", "T2 sequence (Q15116 25-288)": "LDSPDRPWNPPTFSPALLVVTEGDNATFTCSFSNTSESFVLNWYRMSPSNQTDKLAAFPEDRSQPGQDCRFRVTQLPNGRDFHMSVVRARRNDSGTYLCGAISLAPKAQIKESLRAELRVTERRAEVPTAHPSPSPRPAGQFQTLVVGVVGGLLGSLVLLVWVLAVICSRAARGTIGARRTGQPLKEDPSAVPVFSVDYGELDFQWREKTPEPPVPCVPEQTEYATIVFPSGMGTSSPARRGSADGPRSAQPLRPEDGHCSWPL", "experiment": "In cellulo PD1 blockade on h-PBMCs by flow cytometry", "assay_type": "cell-based", "details": "h-PBMC cultures, 30 h, n = 3", "source_text": "Then, an ex vivo immune cell culture system using h-PBMCs and exhausted PBMCs from a melanoma patient (e-PBMCs) was used to determine the efficacy of selected ADAPTin peptides on T-effector cells (Fig. 6).[91,92] T-cell exhaustion typically leads to a reduction in cytokine release, cytotoxic activity, as well as slower T-cell proliferation."}, "PD1:PDL1 interaction [4]": {"molecular_target": "PD1:PDL1 interaction", "details": "read-out: apparent Ki, PD1:PDL1 interaction; cited from earlier work", "source_text": "While downsizing a full antibody drug into a single CDR-H3 “hot loop”, one should anticipate a significant loss in binding affinity and specificity. […] The PD1 ..."}, "[5]": {"details": "xlsx sheet of the peptide, individual fit of CD-melt"}},
  "note": "Entries after “also recorded” stand apart in the source; their conditions may differ. Peptide text beside a SMILES is read from it.",
  "data": [
    {"smiles": "CSCC[C@H](NC(=O)[C@H](CC(=O)O)NC(=O)[C@H](Cc1ccccc1)NC(=O)[C@H](CCCNC(=N)N)NC(=O)[C@H](Cc1ccc(O)cc1)NC(=O)[C@H](CC(=O)O)NC(=O)[C@H](CCCNC(=N)N)NC(=O)[C@H](CCCNC(=N)N)NC(=O)[C@H](C)NC(=O)[C@@H](NC(=O)[C@H](Cc1c[nH]c2ccccc12)NC(=O)[C@@H](N)CCCNC(=N)N)C(C)C)C(=O)NCC(=O)N[C@@H](Cc1ccccc1)C(=O)N[C@@H](CC(=O)O)C(=O)N[C@@H](Cc1ccc(O)cc1)C(=O)N[C@@H](Cc1c[nH]c2ccccc12)C(=O)N[C@H](C(=O)N[C@@H](Cc1c[nH]c2ccccc12)C(=O)N[C@@H](CCC(=O)O)C(=O)O)C(C)C", "note": "[2c] (H-RWVARRDYRFDMGFDYWVWE-OH)", "values": [
      {"measurement": "ΔGF0", "setting": "[1]; CD-melt at 228±2 nm, individual two-state Gibbs-Helmholtz fit (Origin 9.0), 0-95 °C, phosphate buffer 15 mM pH 6.5 ± MeOH", "value": "-1.26 ± 0.01", "unit": "kcal/mol"},
      {"measurement": "Hairpin %-fold 291K", "setting": "[1]; Table S5, individual fit, 291 K", "value": "93 ± 1", "unit": "%"},
      {"measurement": "Hairpin %-fold 310K", "setting": "[1]; Table S5, individual fit, 310 K", "value": "77 ± 1", "unit": "%"},
      {"measurement": "-TΔSF0", "setting": "[1]; as E16", "value": "12.4 ± 0.2", "unit": "kcal/mol"},
      {"measurement": "ΔCpF0", "setting": "[1]; as E16", "value": "-29 ± 7", "unit": "cal.deg-1.mol-1"},
      {"measurement": "ΔHF0", "setting": "[1]; as E16", "value": "-13.6 ± 0.2", "unit": "kcal/mol"},
      {"measurement": "VT-CD %-fold", "setting": "[1]; folded fraction (χF) at 25 °C from CD-melts, (R) regular / (B) bulged fold, phosphate buffer 15 mM pH 6.5, up to 20% MeOH", "value": "93% (B)"},
      {"measurement": "Tm 228 nm Glob.", "setting": "[1]; global fit (shared maximum molar ellipticity), 228 nm", "value": 48.0, "unit": "oC"},
      {"measurement": "Tm 202 nm Glob.", "setting": "[1]; global fit, 202 nm", "value": 67.5, "unit": "oC"},
      {"measurement": "χF (291 K) 202 nm Glob.", "setting": "[1]; global fit, 202 nm, 291 K", "value": 97, "unit": "%"},
      {"measurement": "χF (291 K) 228 nm Glob.", "setting": "[1]; global fit, 228 nm, 291 K", "value": 63, "unit": "%"},
      {"measurement": "χF (291 K) 202 nm Indiv.", "setting": "[1]; individual fit, 202 nm, 291 K", "value": 73, "unit": "%"},
      {"measurement": "χF (291 K) 228 nm Indiv.", "setting": "[1]; individual fit, 228 nm, 291 K", "value": 56, "unit": "%"},
      {"measurement": "Tm 228 nm Indiv.", "setting": "[1]; individual fit, exciton band 228 nm", "value": 36.7, "unit": "oC"},
      {"measurement": "Tm 202 nm Indiv.", "setting": "[1]; individual fit, β-bulge band 202 nm", "value": 62.2, "unit": "oC"},
      {"measurement": "VT-CD Tm (°C)", "setting": "[1]; melting temperature from CD-melts, phosphate buffer 15 mM pH 6.5, up to 20% MeOH", "value": 54, "unit": "°C"},
      {"measurement": "DHm, fitted value from OriginPro", "setting": "[1]; [5]", "value": -14.4955, "unit": "kcal/mol"},
      {"measurement": "Tm, fitted value from OriginPro", "setting": "[1]; [5]", "value": 327.29, "unit": "K"},
      {"measurement": "outcome of time-course competition with excess PDL1", "setting": "PD1:PDL1 interaction [2]", "value": "fully displaced by PDL1; also recorded: easily displaced"},
      {"measurement": "IFN-γ", "setting": "e-PBMCs; replicate 1", "value": 4131.52, "unit": "pg/mL"},
      {"measurement": "IL-2", "setting": "e-PBMCs; replicate 1", "value": 0.44, "unit": "pg/mL"},
      {"measurement": "Perforin", "setting": "e-PBMCs; replicate 1", "value": 217.39, "unit": "pg/mL"},
      {"measurement": "TNF-α", "setting": "e-PBMCs; replicate 1", "value": 483.47, "unit": "pg/mL"},
      {"measurement": "IFN-γ", "setting": "e-PBMCs; replicate 2", "value": 7535.05, "unit": "pg/mL"},
      {"measurement": "IL-2", "setting": "e-PBMCs; replicate 2", "value": 266.63, "unit": "pg/mL"},
      {"measurement": "Perforin", "setting": "e-PBMCs; replicate 2", "value": 381.31, "unit": "pg/mL"},
      {"measurement": "TNF-α", "setting": "e-PBMCs; replicate 2", "value": 1150.47, "unit": "pg/mL"},
      {"measurement": "covalent conjugation to PD1 on SDS-PAGE (in words)", "setting": "N-deglycosylated PD1", "value": "No conjugation observed"},
      {"measurement": "PD1 blockade on CD3+/CD8+ T-effector cells", "setting": "[3]", "value": "< 20", "unit": "%"},
      {"measurement": "Ki", "setting": "PD1:PDL1 interaction [4]", "value": 41, "unit": "nM"}
    ]}
  ]
}
